pEC50: −log10 of the molar value.
Legend:
[1] = target: human TRPM8; assay: TRPM8 Protocol-FLIPR Assay (intracellular Ca2+ in HEK-293 cells stably transfected with human TRPM8); assay type: cell-based; conditions: HEK-293 cells stably transfected with human TRPM8, Fluo-4 AM, read-out: TRPM8 EC 50 Value
Method: (§1) Trypsin was inactivated by addition of 8 ml growth medium. Cells were transferred to a 50 ml tube and centrifuged at 850 rpm for 3 minutes to remove medium. After centrifugation, a pellet of cells was formed in the bottom of the tube separating them from the supernatant solution. […] Fluo-4 AM is a fluorescent dye used for quantifying cellular Ca^2+ concentrations in the 100 nM to 1 microM range. At the end of 30 minutes, 45 ml of assay buffer (1×BSS (Hank's Balanced Salt Solution), 20 mM HEPES (4-(2-Hydroxyethyl)-1-piperazineethanesulfonic acid)) was added to wash cells and the resulting mixture was then centrifuged at 850 rpm for 3 minutes to remove excess buffer and Fluo-4 AM calcium indicator.
(§2) The pelleted cells were re-suspended in 10 ml assay buffer and 90 μl aliquots (˜50,000 cells) per well delivered to a 96-well assay plate containing 10 μl of test compounds (1 mM in assay buffer, final concentration 100 μM) or buffer control and incubated at room temperature for 30 minutes. After 30 minutes, a plate was placed into a fluorometric imaging plate reader (FLIPR384 from Molecular Devices, Sunnyvale, Calif.) and basal fluorescence recorded (excitation wave length 488 nm and emission wave length 510 nm). Then 20 μl of […] of TRPM8 agonist WS5 coolant in the assay buffer was added and fluorescence recorded. For determining the direct effect of test compounds on TRPM8, fluorescence was measured immediately after addition of each compound (TABLE 1).

[2] = Sensory evaluation of cooling intensity after brushing with dentifrice; assay type: in vivo; conditions: avg 7 panelists, dentifrice with 0.001% (10 ppm) coolant
Method: Dentifrices were prepared using conventional methods, such as the protocols described in U.S. Pat. No. 8,747,814, which contained no coolant (SAMPLE A—Crest Cavity Protection) or having a coolant from TABLE 1 (SAMPLE B), in a flavor (wintergreen) at 10 parts per million (ppm).
Sensory evaluation studies of coolant activity were conducted using a methodology patterned after the techniques described in M. C. Meilgaard, et al., Sensory Evaluation Techniques, 4th Ed. (2007). Seven panelists brushed with a dentifrice from TABLE 2, having no coolant (SAMPLE A) or having a coolant from TABLE 1 (SAMPLE B), for two minutes, in a flavor (wintergreen) at 10 parts per million (ppm). After brush expectoration, panelists then rinsed their mouth with 15 ml of an aqueous rinse and expectorated.

[3] = target: human TRPM8 (UniProt Q8R4D5); assay: TRPM8 Protocol-FLIPR Assay (intracellular Ca2+ in HEK-293 cells stably transfected with human TRPM8); assay type: cell-based; conditions: HEK-293 cells stably transfected with human TRPM8, Fluo-4 AM
Method: as §1, §2

[4] = concentration where the cooling effect could be clearly recognized; cited from earlier work

With `CC(C)[C@@H]1CC[C@@H](C)C[C@H]1C(=O)OC[C@@H](NC(=O)[C@@H](C)N)c1ccccc1.Cl` [#1] the pEC50 [1] was 8.09, the “Cooling Rating (0-90) of Dentifrice” value ([2]; Time 0 min, wintergreen flavor, 0 = no cooling, 90 = cold as ice) was 33.57 and the “Cooling Rating (0-90) of Dentifrice” value ([2]; Time 15 min) was 32.71. For the same compound, the “Cooling Rating (0-90) of Dentifrice” value ([2]; Time 30 min) was 26.43, the “Cooling Rating (0-90) of Dentifrice” value ([2]; Time 60 min) was 35.71 and the “Cooling Rating (0-90) of Dentifrice” value ([2]; Time 120 min) was 40.00. The “Cooling Rating (0-90) of Dentifrice” value ([2]; Time 180 min) was 36.43, the “Cooling Rating (0-90) of Dentifrice” value ([2]; Time 240 min) was 34.29 and the “Cooling Rating (0-90) of Dentifrice” value ([2]; Time 300 min) was 30.71. For the same compound, the “Cooling Rating (0-90) of Dentifrice” value ([2]; Time 360 min) was 30.71, the “Cooling Rating (0-90) of Dentifrice” value ([2]; Time 420 min) was 23.57 and the “Cooling Rating (0-90) of Dentifrice” value ([2]; Time 480 min) was 20.71.

Work on `CC(C)[C@@H]1CC[C@@H](C)C[C@H]1OC(=O)C[C@@H](NC(=O)CN)c1ccccc1` [#2] yielded a pEC50 [1] of 7.21.

`CC(C)[C@@H]1CC[C@@H](C)C[C@H]1C(=O)OC[C@@H](NC(=O)CNC(=O)OC(C)(C)C)c1ccccc1` [#3] gave a pEC50 [1] of 4.63.

`CC(C)[C@@H]1CC[C@@H](C)C[C@H]1C(=O)OC[C@@H](NC(=O)CN)c1ccccc1` [#4] showed a pEC50 [1] of 7.19.

`CC1CCC(C(C)C)C(OC(=O)C(N)c2ccccc2)C1` (centres unmarked) [#5] gave a pEC50 [1] of 4.22.

In the case of `CC(C)[C@@H]1CC[C@@H](C)C[C@H]1OC(=O)C[C@@H](NC(=O)OC(C)(C)C)c1ccccc1` [#6], the “TRPM8 EC 50 Value” [3] was “Too high to measure”.

With `CC1CCC(C(C)C)C(OC(=O)CC(N)c2ccccc2)C1` (centres unmarked) [#7] the pEC50 [1] was 5.10.

For `CC(C)[C@@H]1CC[C@@H](C)C[C@H]1OC(=O)C[C@@H](NC(=O)CNC(=O)OC(C)(C)C)c1ccccc1` [#8], the “TRPM8 EC 50 Value” [3] was “Too high to measure”.

Compound `CC(C)[C@@H]1CC[C@@H](C)C[C@H]1C(=O)OC[C@@H](OC(=O)CN)c1ccccc1` [#9] has a pEC50 [1] of 7.89.

Compound `CC(C)[C@@H]1CC[C@@H](C)C[C@H]1OC(=O)C[C@@H](NC(=O)[C@@H](C)N)c1ccccc1` [#10] has a pEC50 [1] of 7.43.

For `CC(C)[C@@H]1CC[C@@H](C)C[C@H]1C(=O)OC[C@@H](NC(=O)[C@H](C)N)c1ccccc1` [#11], the pEC50 [1] was 6.47.

`CC(C)[C@@H]1CC[C@@H](C)C[C@H]1C(=O)OC[C@@H](O)c1ccccc1` [#12] gave a pEC50 [1] of 6.23.

`CC(C)[C@H]1CC[C@H](C)C[C@@H]1OC(=O)C[C@@H](NC(=O)CN)c1ccccc1` [#13] gave a pEC50 [1] of 6.05.

Work on `CC(C)[C@@H]1CC[C@@H](C)C[C@H]1OC(=O)C[C@@H](NC(=O)[C@H](C)N)c1ccccc1` [#14] yielded a pEC50 [1] of 6.04.

`CC(C)[C@@H]1CC[C@@H](C)C[C@H]1OC(=O)CC(NCCN)c1ccccc1` (some centres unmarked) [#15] gave a pEC50 [1] of 5.71.

With `CC(C)[C@@H]1CC[C@@H](C)C[C@H]1OC(=O)CC(NCc1ccccn1)c1ccccc1` (some centres unmarked) [#16] the pEC50 [1] was 5.68.

Work on `CC(C)[C@@H]1CC[C@@H](C)C[C@H]1C(=O)OC[C@H](NC(=O)CN)c1ccccc1` [#17] yielded a pEC50 [1] of 5.65.

Compound `CC(C)[C@@H]1CC[C@@H](C)C[C@@H]1OC(=O)C[C@@H](NC(=O)CN)c1ccccc1` [#18] has a pEC50 [1] of 5.53.

With `CC(C)[C@@H]1CC[C@@H](C)C[C@H]1OC(=O)C(Cc1ccccc1)NC(=O)CN` (some centres unmarked) [#19] the pEC50 [1] was 5.37.

In the case of `CC(C)[C@@H]1CC[C@@H](C)C[C@H]1C(=O)OC[C@@H](OC(=O)CNC(=O)OC(C)(C)C)c1ccccc1` [#20], the pEC50 [1] was 5.35.

With `CC(C)[C@H]1CC[C@@H](C)C[C@@H]1OC(=O)C[C@@H](NC(=O)CN)c1ccccc1` [#21] the pEC50 [1] was 5.30.

In the case of `CC(C)[C@@H]1CC[C@@H](C)C[C@H]1OC(=O)[C@@H](NC(=O)[C@H](C)N)c1ccccc1` [#22], the pEC50 [1] was 4.48.

`CC(C)[C@@H]1CC[C@@H](C)C[C@H]1OC(=O)[C@@H](NC(=O)CN)c1ccccc1` [#23] showed a pEC50 [1] of 4.47.

`CC(C)[C@@H]1CC[C@@H](C)C[C@H]1OC(=O)CCCCCN` [#25] showed a pEC50 [1] of 5.02.

For `CC(C)[C@@H]1CC[C@@H](C)C[C@H]1C(=O)OC[C@@H](OC(=O)[C@@H]1C[C@H](C)CC[C@H]1C(C)C)c1ccccc1` [#26], the pEC50 [1] was 3.86.

For `CC(C)[C@@H]1CC[C@@H](C)C[C@H]1COC(=O)C(NC(=O)CN)c1ccccc1` (some centres unmarked) [#27], the pEC50 [1] was 3.84.

Work on `CC(C)[C@@H]1CC[C@@H](C)CC1OC(=O)c1ccccc1NC(=O)CN` (some centres unmarked) [#34] yielded a pEC50 [1] of 4.72.

In the case of `CC(C)[C@@H]1CC[C@@H](C)C[C@H]1O` [L-menthol], the cooling threshold [4] is listed as “about 800 ppb”.

In the case of `CC(C)[C@@H]1CC[C@@H](C)C[C@@H]1O` [Sample 1-neomenthol, 1-neomenthol], the cooling threshold [4] is given as “about 3,000 ppb”.

For `CC(C)[C@@H]1CC[C@@H](C)C[C@@H]1O` [d-neomenthol], the cooling threshold [4] is given as “about 25,000 ppb”.
